Experiments:
DDR1 = target: T1, DDR1 (Homo sapiens, UniProt Q08345); test: LanthaScreen Europium Kinase Binding assay, DDR1; details: 5 nM DDR1, 20 nM Kinase Tracer 178, 1 h at rt; Ki from IC50 by Cheng-Prusoff; read-out: Ki DDR1
T1 construct: purchased Carna Biosciences
Experimental: (§1) DDR1 and DDR2 binding assays were performed using Life Technologies LanthaScreen™ Europium Kinase Binding assay. […] IC50 values were determined in GraphPad Prism 7.0 software, using 4 parameter model: log (inhibitor) vs. response. IC50 values were converted in Ki using the Cheng-Prusoff equation (Ki-IC50/(1+ [Tracer]/Kd).

DDR2 = target: T2, DDR2 (Homo sapiens, UniProt Q16832); test: LanthaScreen Europium Kinase Binding assay, DDR2; details: 5 nM DDR2, 10 nM Kinase Tracer 178, 1 h at rt; Ki from IC50 by Cheng-Prusoff; read-out: Ki DDR2
T2 construct: purchased Life Technologies
T2 sequence (Q16832 22-855): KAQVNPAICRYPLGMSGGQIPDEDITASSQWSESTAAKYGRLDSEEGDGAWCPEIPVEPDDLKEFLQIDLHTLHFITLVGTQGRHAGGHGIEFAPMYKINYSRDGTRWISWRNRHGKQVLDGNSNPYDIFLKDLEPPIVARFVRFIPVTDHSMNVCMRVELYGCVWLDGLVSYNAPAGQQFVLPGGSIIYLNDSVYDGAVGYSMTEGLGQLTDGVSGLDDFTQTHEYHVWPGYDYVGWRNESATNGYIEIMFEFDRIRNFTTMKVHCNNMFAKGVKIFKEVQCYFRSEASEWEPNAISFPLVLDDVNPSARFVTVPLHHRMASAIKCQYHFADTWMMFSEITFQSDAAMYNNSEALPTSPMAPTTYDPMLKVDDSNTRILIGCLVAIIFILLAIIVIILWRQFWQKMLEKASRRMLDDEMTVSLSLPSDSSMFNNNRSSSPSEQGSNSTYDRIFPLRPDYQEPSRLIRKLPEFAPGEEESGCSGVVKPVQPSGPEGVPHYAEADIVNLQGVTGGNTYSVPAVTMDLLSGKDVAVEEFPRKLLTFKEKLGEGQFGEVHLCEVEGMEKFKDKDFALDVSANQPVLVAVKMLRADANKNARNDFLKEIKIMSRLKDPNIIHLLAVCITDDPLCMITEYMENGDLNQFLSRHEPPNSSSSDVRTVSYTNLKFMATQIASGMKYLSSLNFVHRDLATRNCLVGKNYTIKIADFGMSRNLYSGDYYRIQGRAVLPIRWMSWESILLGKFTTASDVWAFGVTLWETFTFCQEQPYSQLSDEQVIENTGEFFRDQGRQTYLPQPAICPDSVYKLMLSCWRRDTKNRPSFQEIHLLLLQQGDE
Experimental: as §1

T1 sequence (Q08345 19-913): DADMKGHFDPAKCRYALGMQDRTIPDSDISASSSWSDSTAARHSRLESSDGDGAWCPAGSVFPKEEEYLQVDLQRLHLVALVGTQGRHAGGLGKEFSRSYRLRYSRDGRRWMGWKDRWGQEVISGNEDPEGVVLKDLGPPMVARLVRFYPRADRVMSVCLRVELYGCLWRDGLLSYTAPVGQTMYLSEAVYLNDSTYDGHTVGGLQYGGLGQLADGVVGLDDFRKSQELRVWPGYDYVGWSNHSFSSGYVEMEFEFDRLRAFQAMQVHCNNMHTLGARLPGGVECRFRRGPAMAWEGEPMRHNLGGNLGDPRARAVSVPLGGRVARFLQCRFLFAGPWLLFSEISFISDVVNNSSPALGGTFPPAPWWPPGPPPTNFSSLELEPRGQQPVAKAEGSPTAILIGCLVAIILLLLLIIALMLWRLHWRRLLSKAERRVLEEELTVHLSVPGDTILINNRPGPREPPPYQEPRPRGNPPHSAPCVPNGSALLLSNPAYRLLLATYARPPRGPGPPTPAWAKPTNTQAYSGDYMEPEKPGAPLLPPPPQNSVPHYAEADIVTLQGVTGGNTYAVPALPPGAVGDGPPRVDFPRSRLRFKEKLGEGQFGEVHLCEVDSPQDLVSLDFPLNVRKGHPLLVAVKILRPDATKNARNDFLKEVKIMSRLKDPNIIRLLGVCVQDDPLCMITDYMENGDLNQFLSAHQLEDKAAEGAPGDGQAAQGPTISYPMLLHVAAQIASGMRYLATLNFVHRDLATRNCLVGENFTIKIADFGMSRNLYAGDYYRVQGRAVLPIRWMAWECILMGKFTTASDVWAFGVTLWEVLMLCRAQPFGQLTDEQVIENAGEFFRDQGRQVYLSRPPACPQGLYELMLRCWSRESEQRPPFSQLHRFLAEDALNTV

| Compound | Ki (DDR1) [nM] | Ki (DDR2) [nM] |
| --- | --- | --- |
| COc1ncc(C(F)(F)F)cc1NC(=O)NC1CC2(C1)CN(C(=O)c1cnn3ccn(C)c13)C2 [Example 107, 1-(2-methoxy-5-(trifluoromethyl)pyridin-3-yl)-3-(2-(1-methyl-1H-imidazo[1,2-b]pyrazole-7-carbonyl)-2-azaspiro[3.3]heptan-6-yl)urea] | < 5 | 5 to 25 |
| O=C(Nc1cc(CO)cc(C(F)(F)F)c1)NC1CC2(C1)CN(C(=O)c1ncnc3ccsc13)C2 [Example 110, 1-(3-(hydroxymethyl)-5-(trifluoromethyl)phenyl)-3-(2-(thieno[3,2-d]pyrimidine-4-carbonyl)-2-azaspiro[3.3]heptan-6-yl)urea] | < 5 | < 5 |
| CN(C(=O)Nc1cc(C#N)cc(OC(F)(F)F)c1)C1CC2(C1)CN(C(=O)c1cnn3ccn(C)c13)C2 [Example 111, 3-(3-cyano-5-(trifluoromethoxy)phenyl)-1-methyl-1-(2-(1-methyl-1H-imidazo[1,2-b]pyrazole-7-carbonyl)-2-azaspiro[3.3]heptan-6-yl)urea] | < 5 | < 5 |
| CN(C)Cc1ccc(NC(=O)NC2CC3(C2)CN(C(=O)c2ncnc4ccsc24)C3)cc1C(F)(F)F [Example 112, 1-(4-((dimethylamino)methyl)-3-(trifluoromethyl)phenyl)-3-(2-(thieno[3,2-d]pyrimidine-4-carbonyl)-2-azaspiro[3.3]heptan-6-yl)urea] | < 5 | 5 to 25 |
| O=C(Nc1cccc(C(F)(F)F)c1)NC1CC2(C1)CN(C(=O)c1cnn3cc(CO)ccc13)C2 [Example 113, 1-(2-(6-(hydroxymethyl)pyrazolo[1,5-a]pyridine-3-carbonyl)-2-azaspiro[3.3]heptan-6-yl)-3-(3-(trifluoromethyl)phenyl)urea] | < 5 | < 5 |
| CN(C(=O)Nc1cc(OC(F)(F)F)ccn1)C1CC2(C1)CN(C(=O)c1cnn3ccsc13)C2 [Example 114, 1-methyl-1-(2-(pyrazolo[5,1-b]thiazole-7-carbonyl)-2-azaspiro[3.3]heptan-6-yl)-3-(4-(trifluoromethoxy)pyridin-2-yl)urea] | < 5 | 5 to 25 |
| O=C(Nc1cccc(C(F)(F)F)c1)NC1CC2(C1)CN(C(=O)c1ccnc3[nH]ccc13)C2 [Example 115, 1-(2-(1H-pyrrolo[2,3-b]pyridine-4-carbonyl)-2-azaspiro[3.3]heptan-6-yl)-3-(3-(trifluoromethyl)phenyl)urea] | < 5 | 5 to 25 |
| O=C(Nc1cccc(C(F)(F)F)c1)NC1CC2(C1)CN(C(=O)c1cnn3cc(CNC4COC4)ccc13)C2 [Example 116, 1-(2-(6-((oxetan-3-ylamino)methyl)pyrazolo[1,5-a]pyridine-3-carbonyl)-2-azaspiro[3.3]heptan-6-yl)-3-(3-(trifluoromethyl)phenyl)urea] | < 5 | 5 to 25 |
| CN(C(=O)Nc1cccc(C(F)(F)C(F)(F)F)c1)C1CC2(C1)CN(C(=O)c1cnn3ccn(C)c13)C2 [Example 117, 1-methyl-1-(2-(1-methyl-1H-imidazo[1,2-b]pyrazole-7-carbonyl)-2-azaspiro[3.3]heptan-6-yl)-3-(3-(perfluoroethyl)phenyl) urea] | < 5 | < 5 |
| O=C(Nc1cccc(S(F)(F)(F)(F)F)c1)NC1CC2(C1)CN(C(=O)c1ccnc3[nH]ncc13)C2 [Example 120, 1-(2-(1H-pyrazolo[3,4-b]pyridine-4-carbonyl)-2-azaspiro[3.3]heptan-6-yl)-3-(3-(pentafluoro-16-sulfaneyl)phenyl)urea] | < 5 | < 5 |
| O=C(Nc1cccc(C(F)(F)F)c1)NC1CC2(C1)CN(C(=O)c1ncnc3[nH]ncc13)C2 [Example 122, 1-(2-(1H-pyrazolo[3,4-d]pyrimidine-4-carbonyl)-2-azaspiro[3.3]heptan-6-yl)-3-(3-(trifluoromethyl)phenyl)urea] | < 5 | < 5 |
| Cn1ccn2ncc(C(=O)N3CC4(CC(NC(=O)Nc5cccc(SC(F)(F)F)c5)C4)C3)c12 [Example 125, 1-(2-(1-methyl-1H-imidazo[1,2-b]pyrazole-7-carbonyl)-2-azaspiro[3.3]heptan-6-yl)-3-(3-((trifluoromethyl)thio)phenyl) urea] | < 5 | < 5 |
| Cn1ccn2ncc(C(=O)N3CC4(CC(NC(=O)Nc5cc(C(F)(F)F)ccc5OC5COC5)C4)C3)c12 [Example 126, 1-(2-(1-methyl-1H-imidazo[1,2-b]pyrazole-7-carbonyl)-2-azaspiro[3.3]heptan-6-yl)-3-(2-(oxetan-3-yloxy)-5-(trifluoromethyl)phenyl)urea] | < 5 | 5 to 25 |

Other lines, results leading:

| Ki (DDR1) [nM] | Ki (DDR2) [nM] | Compound |
| --- | --- | --- |
| < 5 | < 5 | Cn1ccn2ncc(C(=O)N3CC4(CC(NC(=O)Nc5cc(F)cc(C(F)(F)F)c5)C4)C3)c12 [Example 106, 1-(3-fluoro-5-(trifluoromethyl)phenyl)-3-(2-(1-methyl-1H-imidazo[1,2-b]pyrazole-7-carbonyl)-2-azaspiro[3.3]heptan-6-yl)urea] |
| < 5 | 5 to 25 | Cn1ccn2ncc(C(=O)N3CC4(CC(NC(=O)Nc5ccc(Cl)c(C(F)(F)F)c5)C4)C3)c12 [Example 108, 1-(4-chloro-3-(trifluoromethyl)phenyl)-3-(2-(1-methyl-1H-imidazo[1,2-b]pyrazole-7-carbonyl)-2-azaspiro[3.3]heptan-6-yl)urea] |
| < 5 | < 5 | COc1ccc(S(F)(F)(F)(F)F)cc1NC(=O)NC1CC2(C1)CN(C(=O)c1cnn3ccn(C)c13)C2 [Example 109, 1-(2-methoxy-5-(pentafluoro-16-sulfaneyl)phenyl)-3-(2-(1-methyl-1H-imidazo[1,2-b]pyrazole-7-carbonyl)-2-azaspiro[3.3]heptan-6-yl)urea] |
| < 5 | < 5 | Cn1ccn2ncc(C(=O)N3CC4(CC(NC(=O)Nc5ccc(F)c(OC(F)(F)F)c5)C4)C3)c12 [Example 118, 1-(4-fluoro-3-(trifluoromethoxy)phenyl)-3-(2-(1-methyl-1H-imidazo[1,2-b]pyrazole-7-carbonyl)-2-azaspiro[3.3]heptan-6-yl)urea] |
| < 5 | < 5 | Cn1ccn2ncc(C(=O)N3CC4(CC(NC(=O)Nc5cc(C#N)cc(S(F)(F)(F)(F)F)c5)C4)C3)c12 [Example 119, 1-(3-cyano-5-(pentafluoro-16-sulfaneyl)phenyl)-3-(2-(1-methyl-1H-imidazo[1,2-b]pyrazole-7-carbonyl)-2-azaspiro[3.3]heptan-6-yl)urea] |
| < 5 | 5 to 25 | Cn1ccn2ncc(C(=O)N3CC4(CC(NC(=O)Nc5ccc(F)c(C(F)(F)F)c5)C4)C3)c12 [Example 121, 1-(4-fluoro-3-(trifluoromethyl)phenyl)-3-(2-(1-methyl-1H-imidazo[1,2-b]pyrazole-7-carbonyl)-2-azaspiro[3.3]heptan-6-yl)urea] |
| < 5 | 5 to 25 | Cn1ccn2ncc(C(=O)N3CC4(CC(NC(=O)Nc5cc(C(F)(F)F)ccc5F)C4)C3)c12 [Example 123, 1-(2-fluoro-5-(trifluoromethyl)phenyl)-3-(2-(1-methyl-1H-imidazo[1,2-b]pyrazole-7-carbonyl)-2-azaspiro[3.3]heptan-6-yl)urea] |
| < 5 | < 5 | Cn1ccn2ncc(C(=O)N3CC4(CC(NC(=O)Nc5cc(F)cc(OC(F)(F)F)c5)C4)C3)c12 [Example 124, 1-(3-fluoro-5-(trifluoromethoxy)phenyl)-3-(2-(1-methyl-1H-imidazo[1,2-b]pyrazole-7-carbonyl)-2-azaspiro[3.3]heptan-6-yl)urea] |

— US20260285855A1, “HETEROARYL DERIVATIVES AS DDRS INHIBITORS” (CHIESI FARMACEUTICI S.P.A., priority 2023, published 2026)
